{"source": "the supplement of paper PMC10307832", "assay_in_all_cases": "relative viability (nuclei count vs DMSO), 5 days (fraction); higher = more cells survive", "key": {"[1]": {"system": "LU99A", "outline": "(§1)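 Values are medians from duplicate plates. Each reflects relative viability, defined as the nuclei count of treated wells over that of vehicle wells. Lung cancer cell lines in 1536-well plates were pin-tool dosed one day after seeding with one drug alone or with a fixed anchor-drug dose plus five library-drug doses (not always all listed) in √10 steps, then fixed, stained and imaged at 4× after 5 days.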"}, "[2]": {"system": "LXF-289", "outline": "as §1"}, "[3]": {"system": "NCI-H322M", "outline": "as §1"}, "[4]": {"system": "PC-14", "outline": "as §1"}, "[5]": {"system": "LCLC-103H", "outline": "as §1"}, "[6]": {"system": "RERF-LC-KJ", "outline": "as §1"}, "[7]": {"system": "NCI-H23", "outline": "as §1"}, "[8]": {"system": "EPLC-272H", "outline": "as §1"}, "[9]": {"system": "LK-2", "outline": "as §1"}, "[10]": {"system": "HCC-827", "outline": "as §1"}, "[11]": {"system": "EKVX", "outline": "as §1"}, "[12]": {"system": "SW 1573", "outline": "as §1"}, "[13]": {"system": "ChaGo-K-1", "outline": "as §1"}, "[14]": {"system": "HCC-78", "outline": "as §1"}, "[15]": {"system": "NCI-H1666", "outline": "as §1"}, "[16]": {"system": "EMC-BAC-2", "outline": "as §1"}, "[17]": {"system": "NCI-H2405", "outline": "as §1"}, "[18]": {"system": "NCI-H2342", "outline": "as §1"}, "[19]": {"system": "SK-LU-1", "outline": "as §1"}, "[20]": {"system": "SW 900", "outline": "as §1"}, "[21]": {"system": "NCI-H2126", "outline": "as §1"}, "[22]": {"system": "NCI-H1975", "outline": "as §1"}}}
{"smiles": "O=c1cc(N2CCOCC2)oc2c(-c3cccc4c3sc3ccccc34)cccc12", "note": "+ Cc1cc(Nc2cc(N3CCN(C)CC3)nc(Sc3ccc(NC(=O)C4CC4)cc3)n2)n[nH]1 [Tozasertib] (partner 0.1 µM)", "values": [{"measurement": "relative viability", "setting": "[1]; first compound 0.01 µM", "value": 0.262}, {"measurement": "relative viability", "setting": "[1]; first compound 0.03162 µM", "value": 0.279}, {"measurement": "relative viability", "setting": "[1]; first compound 0.1 µM", "value": 0.273}, {"measurement": "relative viability", "setting": "[1]; first compound 0.3162 µM", "value": 0.303}, {"measurement": "relative viability", "setting": "[1]; first compound 1 µM", "value": 0.267}, {"measurement": "relative viability", "setting": "[2]; first compound 0.01 µM", "value": 0.235}, {"measurement": "relative viability", "setting": "[2]; first compound 0.03162 µM", "value": 0.216}, {"measurement": "relative viability", "setting": "[2]; first compound 0.1 µM", "value": 0.218}, {"measurement": "relative viability", "setting": "[2]; first compound 0.3162 µM", "value": 0.174}, {"measurement": "relative viability", "setting": "[2]; first compound 1 µM", "value": 0.197}, {"measurement": "relative viability", "setting": "[3]; first compound 0.01 µM", "value": 0.49}, {"measurement": "relative viability", "setting": "[3]; first compound 0.03162 µM", "value": 0.464}, {"measurement": "relative viability", "setting": "[3]; first compound 0.1 µM", "value": 0.485}, {"measurement": "relative viability", "setting": "[3]; first compound 0.3162 µM", "value": 0.473}, {"measurement": "relative viability", "setting": "[3]; first compound 1 µM", "value": 0.407}, {"measurement": "relative viability", "setting": "[4]; first compound 0.01 µM", "value": 0.567}, {"measurement": "relative viability", "setting": "[4]; first compound 0.03162 µM", "value": 0.572}, {"measurement": "relative viability", "setting": "[4]; first compound 0.1 µM", "value": 0.575}, {"measurement": "relative viability", "setting": "[4]; first compound 0.3162 µM", "value": 0.535}, {"measurement": "relative viability", "setting": "[4]; first compound 1 µM", "value": 0.577}, {"measurement": "relative viability", "setting": "[5]; first compound 0.01 µM", "value": 0.425}, {"measurement": "relative viability", "setting": "[5]; first compound 0.03162 µM", "value": 0.538}, {"measurement": "relative viability", "setting": "[5]; first compound 0.1 µM", "value": 0.485}, {"measurement": "relative viability", "setting": "[5]; first compound 0.3162 µM", "value": 0.504}, {"measurement": "relative viability", "setting": "[5]; first compound 1 µM", "value": 0.457}, {"measurement": "relative viability", "setting": "[6]; first compound 0.01 µM", "value": 0.482}, {"measurement": "relative viability", "setting": "[6]; first compound 0.03162 µM", "value": 0.576}, {"measurement": "relative viability", "setting": "[6]; first compound 0.1 µM", "value": 0.496}, {"measurement": "relative viability", "setting": "[6]; first compound 0.3162 µM", "value": 0.429}, {"measurement": "relative viability", "setting": "[6]; first compound 1 µM", "value": 0.522}, {"measurement": "relative viability", "setting": "[7]; first compound 0.01 µM", "value": 0.363}, {"measurement": "relative viability", "setting": "[7]; first compound 0.03162 µM", "value": 0.391}, {"measurement": "relative viability", "setting": "[7]; first compound 0.3162 µM", "value": 0.31}, {"measurement": "relative viability", "setting": "[7]; first compound 1 µM", "value": 0.351}, {"measurement": "relative viability", "setting": "[8]; first compound 0.01 µM", "value": 0.288}, {"measurement": "relative viability", "setting": "[8]; first compound 0.03162 µM", "value": 0.327}, {"measurement": "relative viability", "setting": "[8]; first compound 0.3162 µM", "value": 0.206}, {"measurement": "relative viability", "setting": "[8]; first compound 1 µM", "value": 0.253}, {"measurement": "relative viability", "setting": "[9]; first compound 0.01 µM", "value": 0.164}, {"measurement": "relative viability", "setting": "[9]; first compound 0.03162 µM", "value": 0.161}, {"measurement": "relative viability", "setting": "[9]; first compound 0.1 µM", "value": 0.17}, {"measurement": "relative viability", "setting": "[9]; first compound 0.3162 µM", "value": 0.166}, {"measurement": "relative viability", "setting": "[9]; first compound 1 µM", "value": 0.17}, {"measurement": "relative viability", "setting": "[10]; first compound 0.01 µM", "value": 0.386}, {"measurement": "relative viability", "setting": "[10]; first compound 0.03162 µM", "value": 0.435}, {"measurement": "relative viability", "setting": "[10]; first compound 0.1 µM", "value": 0.431}, {"measurement": "relative viability", "setting": "[10]; first compound 0.3162 µM", "value": 0.426}, {"measurement": "relative viability", "setting": "[10]; first compound 1 µM", "value": 0.389}, {"measurement": "relative viability", "setting": "[11]; first compound 0.01 µM", "value": 0.448}, {"measurement": "relative viability", "setting": "[11]; first compound 0.03162 µM", "value": 0.332}, {"measurement": "relative viability", "setting": "[11]; first compound 0.1 µM", "value": 0.441}, {"measurement": "relative viability", "setting": "[11]; first compound 0.3162 µM", "value": 0.343}, {"measurement": "relative viability", "setting": "[11]; first compound 1 µM", "value": 0.36}, {"measurement": "relative viability", "setting": "[12]; first compound 0.01 µM", "value": 0.198}, {"measurement": "relative viability", "setting": "[12]; first compound 0.03162 µM", "value": 0.159}, {"measurement": "relative viability", "setting": "[12]; first compound 0.1 µM", "value": 0.164}, {"measurement": "relative viability", "setting": "[12]; first compound 0.3162 µM", "value": 0.157}, {"measurement": "relative viability", "setting": "[12]; first compound 1 µM", "value": 0.166}, {"measurement": "relative viability", "setting": "[13]; first compound 0.01 µM", "value": 0.232}, {"measurement": "relative viability", "setting": "[13]; first compound 0.03162 µM", "value": 0.209}, {"measurement": "relative viability", "setting": "[13]; first compound 0.1 µM", "value": 0.198}, {"measurement": "relative viability", "setting": "[13]; first compound 0.3162 µM", "value": 0.222}, {"measurement": "relative viability", "setting": "[13]; first compound 1 µM", "value": 0.209}, {"measurement": "relative viability", "setting": "[14]; first compound 0.01 µM", "value": 0.417}, {"measurement": "relative viability", "setting": "[14]; first compound 0.03162 µM", "value": 0.359}, {"measurement": "relative viability", "setting": "[14]; first compound 0.1 µM", "value": 0.417}, {"measurement": "relative viability", "setting": "[14]; first compound 0.3162 µM", "value": 0.41}, {"measurement": "relative viability", "setting": "[14]; first compound 1 µM", "value": 0.452}, {"measurement": "relative viability", "setting": "[15]; first compound 0.01 µM", "value": 0.512}, {"measurement": "relative viability", "setting": "[15]; first compound 0.03162 µM", "value": 0.56}, {"measurement": "relative viability", "setting": "[15]; first compound 0.1 µM", "value": 0.579}, {"measurement": "relative viability", "setting": "[15]; first compound 0.3162 µM", "value": 0.596}, {"measurement": "relative viability", "setting": "[15]; first compound 1 µM", "value": 0.567}, {"measurement": "relative viability", "setting": "[16]; first compound 0.01 µM", "value": 0.303}, {"measurement": "relative viability", "setting": "[16]; first compound 0.03162 µM", "value": 0.29}, {"measurement": "relative viability", "setting": "[16]; first compound 0.1 µM", "value": 0.313}, {"measurement": "relative viability", "setting": "[16]; first compound 0.3162 µM", "value": 0.33}, {"measurement": "relative viability", "setting": "[16]; first compound 1 µM", "value": 0.304}, {"measurement": "relative viability", "setting": "[17]; first compound 0.01 µM", "value": 0.727}, {"measurement": "relative viability", "setting": "[17]; first compound 0.03162 µM", "value": 0.753}, {"measurement": "relative viability", "setting": "[17]; first compound 0.1 µM", "value": 0.821}, {"measurement": "relative viability", "setting": "[17]; first compound 0.3162 µM", "value": 0.734}, {"measurement": "relative viability", "setting": "[17]; first compound 1 µM", "value": 0.75}, {"measurement": "relative viability", "setting": "[18]; first compound 0.01 µM", "value": 0.643}, {"measurement": "relative viability", "setting": "[18]; first compound 0.03162 µM", "value": 0.504}, {"measurement": "relative viability", "setting": "[18]; first compound 0.1 µM", "value": 0.535}, {"measurement": "relative viability", "setting": "[18]; first compound 0.3162 µM", "value": 0.555}, {"measurement": "relative viability", "setting": "[18]; first compound 1 µM", "value": 0.469}, {"measurement": "relative viability", "setting": "[19]; first compound 0.01 µM", "value": 0.314}, {"measurement": "relative viability", "setting": "[19]; first compound 0.03162 µM", "value": 0.298}, {"measurement": "relative viability", "setting": "[19]; first compound 0.1 µM", "value": 0.393}, {"measurement": "relative viability", "setting": "[19]; first compound 0.3162 µM", "value": 0.308}, {"measurement": "relative viability", "setting": "[19]; first compound 1 µM", "value": 0.329}, {"measurement": "relative viability", "setting": "[20]; first compound 0.01 µM", "value": 0.505}, {"measurement": "relative viability", "setting": "[20]; first compound 0.03162 µM", "value": 0.651}, {"measurement": "relative viability", "setting": "[20]; first compound 0.1 µM", "value": 0.656}, {"measurement": "relative viability", "setting": "[20]; first compound 0.3162 µM", "value": 0.574}, {"measurement": "relative viability", "setting": "[20]; first compound 1 µM", "value": 0.548}, {"measurement": "relative viability", "setting": "[21]; first compound 0.01 µM", "value": 0.781}, {"measurement": "relative viability", "setting": "[21]; first compound 0.03162 µM", "value": 0.839}, {"measurement": "relative viability", "setting": "[21]; first compound 0.1 µM", "value": 0.839}, {"measurement": "relative viability", "setting": "[21]; first compound 0.3162 µM", "value": 0.794}, {"measurement": "relative viability", "setting": "[21]; first compound 1 µM", "value": 0.789}, {"measurement": "relative viability", "setting": "[22]; first compound 0.01 µM", "value": 0.692}, {"measurement": "relative viability", "setting": "[22]; first compound 0.03162 µM", "value": 0.657}, {"measurement": "relative viability", "setting": "[22]; first compound 0.1 µM", "value": 0.958}, {"measurement": "relative viability", "setting": "[22]; first compound 0.3162 µM", "value": 0.746}, {"measurement": "relative viability", "setting": "[22]; first compound 1 µM", "value": 0.76}]}
